Where two headings read alike, the source gives them in different places.
Legend:
C. auris CBS 10913 = assay: Antifungal MIC assay (broth microdilution in YNB); assay type: cell-based, Candida auris
Text: (§1) Yeast strains: Candida albicans (ATCC 90028, NCCLS 11), Cryptococcus neoformans (ATCC 208821, H99 type strain), Candida tropicalis (ATCC 750, type strain), Candida glabrata (ATCC 90030, NCCLS 84) and Cryptococcus deuterogattii (ATCC 32609, type strain) were obtained from the American Type Culture Collection (ATCC). Cryptococcus deuterogattii (CBS 7750), Candida auris (CBS 10913) and Candida auris (CBS 12373) were obtained from the CBS‐KNAW culture collection. The strains were maintained on glycerol/YPD (yeast extract‐peptone dextrose) broth (20:80 v/v) at −80 °C.
(§2) Antifungal minimum inhibitory concentration (MIC) assay: The cobalt complexes and antifungal control compounds were serially diluted in 50 μL of Yeast Nitrogen Broth (YNB; BD, Cat No. 233520 supplemented with 2 % glucose and 10 mM ammonium sulfate) two‐fold across the wells of non‐binding surface (NBS) 96‐well plates (Corning; Cat. No. 3641). Plates were set up in quadruplicate for each strain tested, and two biological replicates were conducted on separate assay days.
(§3) Yeast strains were cultured from glycerol onto YPD (Becton Dickinson 242720) agar at 30 °C for 72 h. For each strain, a minimum of five single colonies were taken from the agar plate and dissolved in sterile water and adjusted to form a yeast suspension of 1×10^6 to 5×10^6 CFU mL^−1 (as determined by OD530). The suspension was subsequently diluted into YNB media, and added to each well of the compound containing plates, giving a final cell density of 2.5×10^3 CFU mL^−1 and a total volume of 100 μL. Plates were covered and incubated at 35 °C for 36 h without shaking.
(§4) Growth inhibition of all strains was determined visually where the MIC was recorded as the lowest compound concentration with no visible growth. Fluconazole (Sigma F8929), ketoconazole (Sigma K1003) and micafungin (Sigma SML2288) were used as internal positive inhibitor controls for every strain tested.

C. auris CBS 12373 = assay: Antifungal MIC assay (broth microdilution in YNB); assay type: cell-based, Candida auris
Text: as §1, §2, §3, §4

C. glabrata ATCC 90030 = assay: Antifungal MIC assay (broth microdilution in YNB); assay type: cell-based, Candida glabrata
Text: as §1, §2, §3, §4

C. tropicalis ATCC 750 = assay: Antifungal MIC assay (broth microdilution in YNB); assay type: cell-based, Candida tropicalis
Text: as §1, §2, §3, §4

[1] = tested on: C. deuterogattii ATCC 32609; assay: Antifungal MIC assay (broth microdilution in YNB); assay type: cell-based, Cryptococcus deuterogattii
Text: as §1, §2, §3, §4

[2] = tested on: C. deuterogattii CBS 7750; assay: Antifungal MIC assay (broth microdilution in YNB); assay type: cell-based, Cryptococcus deuterogattii
Text: as §1, §2, §3, §4

[3] = tested on: C. neoformans ATCC 208821; assay: Antifungal MIC assay (broth microdilution in YNB); assay type: cell-based, Cryptococcus neoformans
Text: as §1, §2, §3, §4

[4] = tested on: Acinetobacter baumannii ATCC 19606; assay: CO-ADD bacterial broth microdilution MIC assay; assay type: cell-based; settings: CAMHB, 37 °C, 18 h, ≥ 80% inhibition
Protocol: (§5) CO-ADD High Throughput Screening
(§6) Bacterial broth microdilution minimum inhibitory concentration (MIC) assay Bacterial strains were cultured in Cation-adjusted Mueller Hinton broth (CAMHB; Bacto Laboratories 212322) at 37 °C overnight. A sample of each culture was then diluted 40-fold in fresh CAMHB and incubated at 37 °C for 1.5-3 h. The resultant mid-log phase cultures were diluted with CAMHB (CFU/mL measured by OD600), then added to each well of the compound-containing plates (384-well non-binding surface (NBS) plates; Corning CLS3640), giving a cell density of 5 × 10^5 CFU/mL and a total volume of 50 µL. Plates were covered and incubated at 37 °C for 18 h without shaking. Inhibition of bacterial growth was determined measuring absorbance at 600 nm (OD600), using media only as negative control and bacteria without inhibitors as positive control. MIC values were determined as the lowest concentration at which the growth was inhibited at ≥ 80%. Colistin sulfate (Sigma C4461) and vancomycin HCl (Sigma 861987) were used as positive inhibitor controls on each plate for Gram-negative and Gram-positive bacteria, respectively.
(§7) Figure S1. 1H NMR (400 MHz) of [Co(ATS)(DMAP)2]NO3 (3) in DMSO-d6.
(§8) (1 picture or pasted object on this page, not shown here)

[5] = tested on: Escherichia coli ATCC 25922; assay: CO-ADD bacterial broth microdilution MIC assay; assay type: cell-based; settings: CAMHB, 37 °C, 18 h, ≥ 80% inhibition
Protocol: as §5, §6, §7, §8

[6] = tested on: Pseudomonas aeruginosa ATCC 27853; assay: CO-ADD bacterial broth microdilution MIC assay; assay type: cell-based; settings: CAMHB, 37 °C, 18 h, ≥ 80% inhibition
Protocol: as §5, §6, §7, §8

[7] = tested on: Staphylococcus aureus ATCC 43300 (MRSA); assay: CO-ADD bacterial broth microdilution MIC assay; assay type: cell-based; settings: CAMHB, 37 °C, 18 h, ≥ 80% inhibition
Protocol: as §5, §6, §7, §8

[8] = tested on: Klebsiella pneumoniae ATCC 700603 (K6; ESBL SHV-18); assay type: cell-based; settings: 18 h
Protocol: as §5, §6, §7, §8

[9] = range of MICs, n=8, 35 °C, 36 h, visual, read-out: MIC C. auris CBS 12373
[10] = range of MICs, n=8, 35 °C, 36 h, visual, read-out: MIC C. glabrata ATCC 90030
[11] = range of MICs, n=8, 35 °C, 36 h, visual, read-out: MIC C. tropicalis ATCC 750
[12] = range of MICs, n=8, 35 °C, 36 h, visual, read-out: MIC C. deuterogattii ATCC 32609
[13] = range of MICs, n=8, 35 °C, 36 h, visual, read-out: MIC C. deuterogattii CBS 7750
[14] = range of MICs, n=8, 35 °C, 36 h, visual, read-out: MIC C. neoformans ATCC 208821
[15] = range of MICs, n=8, 35 °C, 36 h, visual

| Compound | MIC Candida auris CBS 10913 (C. auris CBS 10913; Table S1) [µg/mL] | MIC Candida auris CBS 12373 (C. auris CBS 12373; Table S1) [µg/mL] | MIC (C. auris CBS 12373; [9]) [µM] | MIC Candida glabrata ATCC 90030 (C. glabrata ATCC 90030; Table S1) [µg/mL] | MIC (C. glabrata ATCC 90030; [10]) [µM] | MIC Candida tropicalis ATCC 750 (C. tropicalis ATCC 750; Table S1) [µg/mL] | MIC (C. tropicalis ATCC 750; [11]) [µM] | MIC Cryptococcus deuterogattii ATCC 32609 ([1]; Table S1) [µg/mL] | MIC [1, 12] [µM] | MIC Cryptococcus deuterogattii CBS 7750 ([2]; Table S1) [µg/mL] | MIC [2, 13] [µM] | MIC Cryptococcus neoformans ATCC 208821 ([3]; Table S1) [µg/mL] | MIC [3, 14] [µM] | MIC Ab (Acinetobacter baumannii ATCC 19606) [4] [µg/mL] | MIC Ec (Escherichia coli ATCC 25922) [5] [µg/mL] | MIC Pa (Pseudomonas aeruginosa ATCC 27853) [6] [µg/mL] | MIC Sa (Staphylococcus aureus ATCC 43300, MRSA) [7] [µg/mL] | MIC C. auris CBS 10913 (C. auris CBS 10913; [15]) [µM] | MIC Kp (Klebsiella pneumoniae ATCC 700603) [8] [µg/mL] | further results |
| --- | --- | --- | --- | --- | --- | --- | --- | --- | --- | --- | --- | --- | --- | --- | --- | --- | --- | --- | --- | --- |
| O=[N+]([O-])[O-].O=[N+]([O-])[O-].[Co+2] [Co, Co(NO3)2, reference compound] | > 29.1 | 29.1 | 100 | > 29.1 | >100 | > 29.1 | >100 | > 29.1 | >100 | > 29.1 | >100 | > 29.1 | >100 | > 32 | > 32 | > 32 | > 32 | – | – | MIC (C. auris CBS 10913; range of MICs, n=8, 35 °C, 36 h, visual, read-out: MIC C. auris CBS 10913): >100 µM; MIC Kp (Klebsiella pneumoniae ATCC 700603) ([8]; CAMHB, 37 °C, ≥ 80% inhibition): > 32 µg/mL |
| CC1=[N+]2N=C(N)[S][Co-3]23([n+]2ccc(N(C)C)cc2)([n+]2ccc(N(C)C)cc2)[S]C(N)=N[N+]3=C1C.O=[N+]([O-])[O-] [Compound 3, [Co(ATS)(DMAP)2]NO3] | 0.23 to 0.46 | 0.46 | 0.78 | 29.7 | 50 | 0.23 to 0.46 | – | 0.93 to 1.86 | – | 0.93 | 1.56 | 0.46 to 0.93 | – | > 32 | > 32 | > 32 | > 32 | 0.39 to 0.78 | > 32 | MIC C. tropicalis ATCC 750 (C. tropicalis ATCC 750; [15]): 0.39 to 0.78 µM; MIC C. deuterogattii ATCC 32609 [1, 15]: 1.56 to 3.12 µM |
| O=[N+]([O-])[O-].[NH3+][Co-3]123([NH3+])[O]c4c(F)cccc4C=[N+]1c1ccccc1[N+]2=Cc1cccc(F)c1[O]3 [Compound 7, [Co(3F‐salophen)(NH3)2]NO3] | 0.37 to 0.75 | 23.9 | 50 | 47.8 | 100 | 47.8 | 100 | 47.8 | 100 | 47.8 | 100 | 47.8 | 100 | > 32 | > 32 | > 32 | > 32 | 0.78 to 1.56 | > 32 | MIC C. auris CBS 10913, lowest value ('as low as') (C. auris CBS 10913; lower end of MIC range): 0.78 µM |
| CC(=N\NC(N)=S)/C(C)=N/NC(N)=S [Compound L1] | – | – | – | – | – | – | – | – | – | – | – | – | – | – | – | – | – | – | > 32 | MIC (C. auris CBS 10913; Candidozyma auris, CBS10913, Table S1, read-out: MIC Candida auris CBS 10913): > 23.2 µg/mL; MIC (C. auris CBS 10913; Candidozyma auris, CBS10913, range of MICs, n=8, 35 °C, 36 h, visual, read-out: MIC C. auris CBS 10913): > 100 µM; MIC (C. auris CBS 12373; Candidozyma auris, CBS12373, Table S1, read-out: MIC Candida auris CBS 12373): > 23.2 µg/mL; MIC (C. auris CBS 12373; Candidozyma auris, CBS12373, range of MICs, n=8, 35 °C, 36 h, visual, read-out: MIC C. auris CBS 12373): > 100 µM; MIC (C. glabrata ATCC 90030; Nakaseomyces glabratus, ATCC90030, Table S1, read-out: MIC Candida glabrata ATCC 90030): > 23.2 µg/mL; MIC (C. glabrata ATCC 90030; Nakaseomyces glabratus, ATCC90030, range of MICs, n=8, 35 °C, 36 h, visual, read-out: MIC C. glabrata ATCC 90030): > 100 µM; MIC (C. tropicalis ATCC 750; Candida tropicalis, ATCC750, Table S1, read-out: MIC Candida tropicalis ATCC 750): > 23.2 µg/mL; MIC (C. tropicalis ATCC 750; Candida tropicalis, ATCC750, range of MICs, n=8, 35 °C, 36 h, visual, read-out: MIC C. tropicalis ATCC 750): > 100 µM; MIC ([1]; Cryptococcus deuterogattii, ATCC32609, Table S1, read-out: MIC Cryptococcus deuterogattii ATCC 32609): > 23.2 µg/mL; MIC ([1]; Cryptococcus deuterogattii, ATCC32609, range of MICs, n=8, 35 °C, 36 h, visual, read-out: MIC C. deuterogattii ATCC 32609): > 100 µM; MIC ([2]; Cryptococcus deuterogattii, CBS7750, Table S1, read-out: MIC Cryptococcus deuterogattii CBS 7750): > 23.2 µg/mL; MIC ([2]; Cryptococcus deuterogattii, CBS7750, range of MICs, n=8, 35 °C, 36 h, visual, read-out: MIC C. deuterogattii CBS 7750): > 100 µM; MIC ([3]; Cryptococcus neoformans, ATCC208821, Table S1, read-out: MIC Cryptococcus neoformans ATCC 208821): > 23.2 µg/mL; MIC ([3]; Cryptococcus neoformans, ATCC208821, range of MICs, n=8, 35 °C, 36 h, visual, read-out: MIC C. neoformans ATCC 208821): > 100 µM; MIC ([4]; Acinetobacter baumannii, ATCC19606, read-out: MIC Ab (Acinetobacter baumannii ATCC 19606)): > 32 µg/mL; MIC ([5]; Escherichia coli, ATCC25922, read-out: MIC Ec (Escherichia coli ATCC 25922)): > 32 µg/mL; MIC ([6]; Pseudomonas aeruginosa, ATCC27853, read-out: MIC Pa (Pseudomonas aeruginosa ATCC 27853)): > 32 µg/mL; MIC ([7]; Staphylococcus aureus, read-out: MIC Sa (Staphylococcus aureus ATCC 43300, MRSA)): > 32 µg/mL |

Reference: publication PMC7855930, “Nontoxic Cobalt(III) Schiff Base Complexes with Broad‐Spectrum Antifungal Activity” (Chemistry (Weinheim an Der Bergstrasse, Germany), 2020)
